Results as given in patent US8349835B2, “Aromatic ring fused triazine derivatives and uses thereof” (Shenyang Pharmaceutical University, priority 2008, dated 2013).

What was measured:
[1] = system: Microvascular Endothelial Cells (MVEC); test: MTT growth inhibition of MVEC; format: cell-based; conditions: Endothelial cell, 96 h, 4 days culture with drug, read-out: IG50 on inhibiting growth of MVEC
Experimental: (§1) In Vitro Anti-Tumor Activity Test
(§2) Put cell suspension into centrifugal tubes with a pipette under sterile conditions, then the cell suspension was centrifuged for 3 minutes at 1300 rpm. Discarded the supernatant lightly and added fresh culture medium. Mixed the cells by pipetting, then transferred the cells into culture flasks, and put them into the CO2 incubator. Changed the culture medium once after 24 hours.
(§3) Human prostate cancer cells (DU145, PC-3) were cultured in a medium containing RPMI1640 basic medium supplemented with 10% heat-inactivated FBS, 100 IU/mL penicillin, 100 μg/mL streptomycin and 1 mmol/L L-glutamine. Human breast carcinoma cells (T47D, MDA-MB231) were cultured in a medium containing RPM11640 basic medium supplemented with 10% heat-inactivated FBS, 5 μg/mL insulin, 100 IU/mL penicillin, 100 μg/mL streptomycin and 1 mmol/L L-glutamine. Human breast carcinoma cells (MCF-7) were cultured in a medium containing DMEM basic medium supplemented with 10% heat-inactivated FBS, 5 μg/mL insulin, 100 IU/mL penicillin, 100 μg/mL streptomycin and […]. Murine Lewis lung cancer cells (LL/2), murine melanoma cells (B16FD) and Microvascular Endothelial Cells (MVEC) were cultured in a medium containing DMEM basic medium supplemented with 10% heat-inactivated FBS, 4.5 g/L glucose, 1.5 g/L NaHCO3, 100 IU/mL penicillin, 100 μg/mL streptomycin and 4 mmol/L L-glutamine. All these cell lines were incubated at 37° C. biochemical incubator with 5% CO2 saturated humidity.
(§4) After resuscitation, the cells were passed for 2-3 generations till they became stable, then they were used for the experiments. Each passage was based on the standard that all cells were spread over the bottoms of culture flasks.
(§5) Cells were digested off from the bottoms of culture flasks with trypsin (0.25%). The cell dissociation buffer was transferred into centrifuge tubes, added medium to stop the digestion, and centrifuged for 3 minutes at 1300 rpm. Discarded the supernatant lightly and added fresh culture medium (5 mL). Mixed the cells by pipetting, then added 10 μL of the cell suspension into the cell counting plate, and adjusted the cell concentration to 2×10^4 cells/mL. Added 100 μL of the cell suspension to all wells on the 96 well plates, except A1 well as the blank control. Put the plates into the biochemical incubator for 24 hours and to make sure the cells grew along the walls.
(§6) The drugs were dissolved in 80 mmol/L DMSO first, and then diluted the drugs with ethanol to 8 mmol/L. The solution was further diluted with the culture medium to different concentrations as 160 μmol/L, 120 μmol/L, 80 μmol/L, 40 μmol/L, 20 μmol/L and 10 μmol/L. Added 100 μL of the drug solution to each well on the 96 well plates. Therefore, the final concentrations of the drugs that were added to the cells were 80 μmol/L, 40 μmol/L, 20 μmol/L, 10 μmol/L and 5 μmol/L, and each concentration were repeated in three parallel wells. Put the culture plates into the biochemical incubator to culture continuously for 4 days.
(§7) Added 50 μL MTT liquids (2 mg/mL) into each well, put the culture plates into the biochemical incubator for 4 h, discarded MTT liquids (TCC), added 200 μL DMSO, then oscillated for 10 minutes on the magnetic oscillator to make sure that the survived cells and the reaction product of MTT were fully dissolved. Detected and recorded the absorbance (OD) values of each well at the wavelength of 570 nm using the microplate reader. The OD values of cells without tested drugs were used as control. The cell growth inhibition rates under each drug concentration were calculated by the following formula. […] Inhibition rate of growth(%)=(1−The absorbance(OD)of cells with tested drugs/The absorbance(OD)of the blank control group)×100%
(§8) The absorbance (OD) of cells with tested drugs: OD value is measured with the test drugs.
(§9) The absorbance (OD) of the blank control group: OD value is measured without the test drugs. […]

[2] = system: chorioallantoic membrane vessels; test: Activity test by chick chorioallantoic membrane method; format: in vivo; conditions: 5 uL medicine on cellulose membrane, chick embryo, 2 days
Experimental: After the shell membrane became wet, tore it open with ophthalmological tweezers so to expose the chorioallantoic membrane. • 6) Added 5 uL of selected medicine to a 0.5×0.5 cm cellulose membrane sterilized by high pressure, then set the membrane on the part of the chorioallantoic membrane with fewer vessels • 7) Closed the window, and put the embryos back into the hatch box to hatch for 2 days. • 8) Opened the transparent tape, and then opened the mixed cellulose membrane lightly with a tweezers. Measured the avascular area and took photographs.

[3] = biological target: VEGFR-2 (Homo sapiens, UniProt P35968); test: VEGFR-2 inhibition rate test (kinase assay kit, colorimetric ELISA); conditions: concentration not given
[4] = system: Rat aortic ring; test: Rat Aortic Ring Assay; format: cell-based; conditions: for inhibition at 10 µg/mL: Rattus norvegicus, 10 ug/ml, compared with blank control, sixth day; for Rat Aortic Ring Assay (10 ug/ml), result in words: observed on the sixth day
How it was run: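 1 mm abdominal aortic rings from 6-week-old SD animals embedded in Matrigel, cultured in DMEM/10% FBS with compound at various concentrations (≥3 wells), medium and compound renewed day 3. Microvessel area imaged on day 6 (×100, 3 random rings); inhibition rate scored: ⋆<30-60%, ⋆⋆60-90%, ⋆⋆⋆>90%.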

[5] = system: murine melanoma cells (B16F0); test: MTT growth inhibition of B16F0; format: cell-based; conditions: Mus musculus, 96 h, 4 days, read-out: IG50 B16F0
Experimental: as §1, §2, §3, §4
as §5, with “walls. […]” for “walls.”
as §7, with “The OD values of cells without tested drugs were used as control.” left out
as §8, §9

[6] = system: Human Umbilical Vein Endothelial Cells (HUVEC); test: MTT growth inhibition of HUVEC; format: cell-based; conditions: 96 h, 4 days, read-out: IG50 HUVEC
Experimental: as §1, §2, §4, §5, §6, §7, §8
The absorbance (OD) of the blank control group: OD value is measured without the test drugs.
8) The Growth Inhibition Effect of Compounds on Human Breast Carcinoma Cells (T47D, MDA-MB231, MCF-7), Human Prostate Cancer (DUI45, PC-3), Murine Lewis Lung Cancer Cells (LL/2), Murine Melanoma Cells(B16F0) and Human Umbilical Vein Endothelial Cells (HUVEC) (Table 2).

[7] = system: Murine Lewis lung cancer cells (LL/2); test: MTT growth inhibition of LL/2; format: cell-based; conditions: Mus musculus, Lewis lung carcinoma, 96 h; LL/2, MTT, 4 days; read-out: IG50 LL/2
Experimental: as §1, §2, §3, §4
as §5, with “walls. […]” for “walls.”
as §7, with “The OD values of cells without tested drugs were used as control.” left out
as §8, §9

[8] = system: Human prostate cancer cells (DU145); test: MTT growth inhibition of DU145; format: cell-based; conditions: DU-145, 96 h, 4 days, read-out: IG50 DU145
Experimental: as §1, §2, §3, §4
as §5, with “walls. […]” for “walls.”
as §7, with “The OD values of cells without tested drugs were used as control.” left out
as §8, §9

[9] = system: Human prostate cancer cells (PC-3); test: MTT growth inhibition of PC-3; format: cell-based; conditions: 96 h, PC-3, MTT, 4 days, read-out: IG50 PC-3
Experimental: as §1, §2, §3, §4
as §5, with “walls. […]” for “walls.”
as §7, with “The OD values of cells without tested drugs were used as control.” left out
as §8, §9

[10] = system: Human breast carcinoma cells (T47D); test: MTT growth inhibition of T47D; format: cell-based; conditions: 96 h, 4 days, read-out: IG50 T47D
Experimental: as §1, §2, §3, §4
as §5, with “walls. […]” for “walls.”
as §7, with “The OD values of cells without tested drugs were used as control.” left out
as §8, §9

Sequence of VEGFR-2 (P35968 20-1356): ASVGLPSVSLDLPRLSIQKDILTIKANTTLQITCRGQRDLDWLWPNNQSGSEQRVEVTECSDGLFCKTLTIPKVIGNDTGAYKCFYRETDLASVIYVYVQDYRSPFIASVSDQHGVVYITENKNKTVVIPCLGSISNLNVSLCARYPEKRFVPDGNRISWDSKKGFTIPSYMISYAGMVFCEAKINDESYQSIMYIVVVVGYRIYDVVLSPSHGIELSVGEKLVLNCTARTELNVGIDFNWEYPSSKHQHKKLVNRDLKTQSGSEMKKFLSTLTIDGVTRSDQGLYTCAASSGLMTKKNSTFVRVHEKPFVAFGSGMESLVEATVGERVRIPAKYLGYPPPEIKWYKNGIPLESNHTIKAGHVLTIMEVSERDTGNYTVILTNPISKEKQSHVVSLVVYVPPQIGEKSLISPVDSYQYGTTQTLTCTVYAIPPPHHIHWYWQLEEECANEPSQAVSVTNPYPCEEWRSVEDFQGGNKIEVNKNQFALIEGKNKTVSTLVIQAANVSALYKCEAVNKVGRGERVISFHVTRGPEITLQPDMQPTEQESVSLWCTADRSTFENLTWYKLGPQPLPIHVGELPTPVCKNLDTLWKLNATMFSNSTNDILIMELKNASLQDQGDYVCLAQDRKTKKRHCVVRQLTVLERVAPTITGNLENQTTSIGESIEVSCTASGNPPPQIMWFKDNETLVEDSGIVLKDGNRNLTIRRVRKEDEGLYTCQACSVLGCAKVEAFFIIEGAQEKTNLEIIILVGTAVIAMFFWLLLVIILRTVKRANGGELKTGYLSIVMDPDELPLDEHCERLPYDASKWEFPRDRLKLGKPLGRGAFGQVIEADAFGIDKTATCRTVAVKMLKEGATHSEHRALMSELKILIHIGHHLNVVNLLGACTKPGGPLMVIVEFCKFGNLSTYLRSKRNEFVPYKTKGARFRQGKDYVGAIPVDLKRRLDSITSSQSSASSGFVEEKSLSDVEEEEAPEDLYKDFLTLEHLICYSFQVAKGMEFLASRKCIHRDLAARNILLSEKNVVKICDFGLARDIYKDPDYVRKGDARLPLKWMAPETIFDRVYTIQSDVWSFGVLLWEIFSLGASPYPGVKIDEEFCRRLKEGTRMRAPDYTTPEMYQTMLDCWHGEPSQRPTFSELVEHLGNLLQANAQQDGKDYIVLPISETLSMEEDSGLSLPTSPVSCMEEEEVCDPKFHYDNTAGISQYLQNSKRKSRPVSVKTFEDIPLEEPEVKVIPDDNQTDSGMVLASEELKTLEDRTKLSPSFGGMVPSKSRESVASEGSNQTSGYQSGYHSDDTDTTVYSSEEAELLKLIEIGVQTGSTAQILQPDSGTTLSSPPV

Row | SMILES | IC50 [1] | The inhibitory effect on the growth of chorioallantoic membrane vessels [2] | Kinase inhibition rate (VEGFR-2) [3] | Rat Aortic Ring Assay (10 ug/ml), result in words [4] | further results
1 | Fc1ccc(Nc2nnnc3ccc(Cl)nc23)cc1 [Example 93, 6-chloro-4-(4-fluoroanilino)pyrido[3,2-d][1,2,3]triazine] | 11.7 µM | One of the two samples exhibits death of the embryo, and the other exhibits | 5.27 | – | –
2 | Clc1ccc2nnnc(Nc3cccc(Br)c3)c2n1 [Example 92, 6-chloro-4-(3-bromoanilino)-pyrido[3,2-d][1,2,3]triazine] | 7.24 µM | One of the two samples exhibits significant vascular inhibition. | – | – | inhibition at 10 µg/mL [4]: > 50%
3 | CCOc1cc2nnnc(Nc3ccc(F)c(C(F)(F)F)c3)c2cc1OC [Example 40, 6-methoxy-7-ethoxy-4-(3-trifluoromethyl-4-fluoroanilino)-benzo[d][1,2,3]triazine] | 31.7 µM | One of the two samples exhibits inhibition | – | No significant inhibition | –
4 | CCCCOc1cc2nnnc(Nc3ccc(F)c(Cl)c3)c2cc1OC [Example 22, 6-methoxy-7-n-butoxy-4-(3-chloro-4-fluoroanilino)-benzo[d][1,2,3]triazine] | 17.4 µM | The vessels are fractured at the central part that is covered by paper. | 0.80 | Cell proliferation and migration were affected. Endothelial cell | –
5 | CCCCCOc1cc2nnnc(Nc3cc(F)cc(F)c3)c2cc1OC [Example 47, 6-methoxy-7-pentyloxy-4-(3,5-difluoroanilino)-benzo[d][1,2,3]triazine] | 27.9 µM | The vessels in the paper covered zone become fewer, | – | No significant inhibition | –
6 | COc1cc2c(Nc3ccc(F)cc3)nnnc2cc1OCCCCl [Example 76, 6-methoxy-7-chloropropoxy-4-(4-fluoroanilino)-benzo[d][1,2,3]triazine] | 23.1 µM | The vessels become rare at the zone covered by paper. | 9.35 | No significant inhibition | –
7 | Fc1ccc(Nc2nnnc3ccc(Cl)nc23)cc1C(F)(F)F [Example 90, 6-chloro-4-(3-trifluoromethyl-4-fluoroanilino)pyrido[3,2-d][1,2,3]-triazine] | 10.8 µM | One exhibits no inhibition, and embryo of the other sample is dead. | – | – | –
8 | COc1cc2c(Nc3ccc(F)c(Cl)c3)nnnc2cc1OCCCCl [Example 72, 6-methoxy-7-chloropropoxy-4-(3-chloro-4-fluoroanilino)-benzo[d][1,2,3]triazine] | 7.98 µM | – | −14.70 | – | IC50 [5]: 5.19 µM; IC50 [6]: 3.73 µM; IC50 [7]: 3.79 µM; IC50 [8]: 4.96 µM; IC50 [9]: 6.91 µM; IC50 [10]: 5.04 µM
9 | CCCCOc1cc2nnnc(Nc3ccc(F)c(C(F)(F)F)c3)c2cc1OC [Example 23, 6-methoxy-7-n-butoxy-4-(3-trifluoromethyl-4-fluoroanilino)-benzo[d][1,2,3]triazine] | 16.1 µM | The vessels covered by paper become thinner and fewer. | – | Cell morphology was similar to D10, and cells were linear. | –
10 | CCCCCOc1cc2nnnc(Nc3cccc(OC(F)(F)F)c3)c2cc1OC [Example 53, 6-methoxy-7-pentyloxy-4-(3-trifluoromethoxyanilino)-benzo[d][1,2,3]triazine] | 38 µM | Both of the samples exhibit inhibition ring at the central part of the paper, | 11.22 | No significant inhibition | –
11 | COc1cc2c(Nc3cccc(C(F)(F)F)c3)nnnc2cc1OCCCCl [Example 67, 6-methoxy-7-chloropropoxy-4-(3-trifluoromethylanilino)-benzo[d][1,2,3]triazine] | 21.4 µM | The embryo is dead. | 0.26 | – | inhibition at 10 µg/mL [4]: > 50%
12 | CCOc1cc2nnnc(Nc3cccc(OC(F)(F)F)c3)c2cc1OC [Example 36, 6-methoxy-7-ethoxy-4-(3-trifluoromethoxyanilino)-1,2,3-benzotriazine] | 23.3 µM | One sample exhibits no vascular growth at the zone covered by paper. | – | Almost complete inhibition (10 μg/mL) | –
